Assay results as given in ChEMBL document CHEMBL1136618, “Bis(acridinylthiourea)platinum(II) complexes: synthesis, DNA affinity, and biological activity in glioblastoma cells” (Bioorg Med Chem Lett, 2003).

Tested on: Nucleic Acid
Assay: Intrinsic binding constant in calf thymus DNA
Type: nucleic-acid assay, Bos taurus

Compound	Kb
CNc1c2ccccc2nc2ccccc12	110000 M⁻¹
CNC(=S)N(C)CCNc1c2ccccc2nc2ccccc12	1500000 M⁻¹
